From patent US10344026B2, “Compositions and methods of targeting mutant K-ras” (NANTBIO, INC., priority 2017, dated 2019)

Experiments:
Assay type in all cases: cell-based
Panc10.05-G12D = experiment: Viability assay (CellTiterBlue, 72 hr) Panc10.05; details: Homo sapiens, Panc1005, GI50, CellTiterBlue, Panc10.05 K-Ras G12D, read-out: 72 hr Cell Viability Panc10.05 (G12D)
Outline: (§1)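 GI50 calculation uses a window set by DMSO-treated wells (100% viability) and 100 uM tamoxifen (0%). Cells (1000/well) sit 18 hr at 37 °C, receive compound for 72 hr in 0.5% DMSO, then get CellTiterBlue for 3 hr before reading at Ex550/Em590.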

[1] = tested on: phospho-ERK in Panc1 (G12D); experiment: In-Cell Western phospho-ERK, Panc1; details: Homo sapiens, PANC-1, 1 h; Panc1, one hour treatment; read-out: In-Cell Western Panc1 (G12D) Erk (P)
Outline: (§2)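 Read-out: imaged cellular fluorescence after phospho-ERK/phospho-Akt immunostaining; EC50 derived. Cells plated 3000/well, 18 hr 37° C, compound 1 hr, 0.5% DMSO. Full-inhibition controls: 1 uM BEZ235 (pAkt), 1 uM MEK Inhibitor II (pERK).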

K-Ras G12D = molecular target: T1, K-Ras G12D (Homo sapiens, UniProt P01116, G12D); experiment: G-LISA Ras activation, 293H cells transfected with G12D mutant; details: compound 1 hour
T1 construct: expressed in transfected cells; host or cells: 293H cells
Outline: (§3)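 Seed 293H cells, transfect with Ras wild-type or mutant vector, treat with compound (3.125-25 μM, 1 h), stimulate wild-type cells with EGF (100 ng/ml, 2 min), lyse in ice-cold buffer, then measure GTP-Ras by G-LISA.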

[2] = tested on: phospho-Akt in Panc1 (G12D); experiment: In-Cell Western phospho-Akt, Panc1; details: Homo sapiens, PANC-1, 1 h; Panc1, one hour treatment; read-out: In-Cell Western Panc1 (G12D) Akt (P)
Outline: as §2

HCT116-G31D = experiment: Viability assay (CellTiterBlue, 72 hr) HCT116; details: Homo sapiens, HCT-116, GI50, CellTiterBlue, HCT116 K-Ras G13D, read-out: 72 hr Cell Viability HCT116 (G13D)
Outline: as §1

Panc1-G12D = experiment: Viability assay (CellTiterBlue, 72 hr) Panc1; details: Homo sapiens, PANC-1, GI50, CellTiterBlue, Panc1 K-Ras G12D, read-out: 72 hr Cell Viability Panc1 (G12D)
Outline: as §1

[3] = tested on: Ishikawa (K-Ras wild type cell line); experiment: Viability assay (CellTiterBlue, 72 hr) Ishikawa; details: Homo sapiens, GI50, CellTiterBlue, Ishikawa K-Ras wild-type
Outline: as §1

[4] = tested on: phospho-Akt in HCC827 (Wild-type); experiment: In-Cell Western phospho-Akt, HCC827; details: Homo sapiens, 1 h; HCC827, one hour treatment; read-out: In-Cell Western HCC827 (Wild-type) Akt (P)
Procedure: In-cell phosphorylation assays for Erk and Akt were performed on several of the compounds and exemplary results are shown in Table 3 below using HCC827 and A375 cell lines for wild type K-Ras and Panc1 and Panc10.05 cell lines for G12D K-Ras mutants. Results are expressed in μM and corresponding structures are shown in FIGS. 2A-2G and Examples 1-152, above.
Cells are seeded in complete medium into black sided, clear-bottom 384-well microplates at 3000 cells/[…]/well. Plates are returned to 37° C. CO2 incubator for 18 hr. Drug is made as 200× in DMSO and diluted into medium to 10×. To each well is added 4 ul 10× test article or controls, and plates are returned to the incubator. Final assay DMSO concentration is 0.5%. After one hour, cells are fixed in formaldehyde, rinsed & permeabilized with triton X-100, and blocked with BSA/Goat serum blocking solution. Primary phospho-Akt and phospho-ERK antibodies are added and plates are incubated overnight at 4° C. Plates are rinsed with Tween-20 wash buffer and secondary antibody (Goat anti-rabbit, Thermofisher) is added. After 2 hours, plates are rinsed in Tween-20 wash buffer, and then PBS. Plates are imaged on the Celigo (Nexcelom) and cellular fluorescence is quantitated. Full inhibition of phospho-Akt is achieved with 1 uM BEZ235 (Sellekchem), while full inhibition of phospho-ERK is achieved with 1 uM MEK Inhibitor II Calbiochem). EC50 values are calculated using Graphpad Prism.

[5] = tested on: HCC827 (K-Ras wild type cell line); experiment: Viability assay (CellTiterBlue, 72 hr) HCC827; details: Homo sapiens, GI50, CellTiterBlue, HCC827 K-Ras wild-type
Outline: as §1

[6] = tested on: phospho-ERK in HCC827 (Wild-type); experiment: In-Cell Western phospho-ERK, HCC827; details: Homo sapiens, 1 h; HCC827, one hour treatment; read-out: In-Cell Western HCC827 (Wild-type) Erk (P)
Outline: as §2

[7] = tested on: U87-MG (K-Ras wild type cell line); experiment: Viability assay (CellTiterBlue, 72 hr) U87-MG; details: Homo sapiens, U-87 MG, GI50, CellTiterBlue, U87-MG K-Ras wild-type
Outline: as §1

wild type K-Ras = molecular target: T2, wild type K-Ras (Homo sapiens, UniProt P01116); experiment: G-LISA Ras activation, 293H cells transfected with Ras wild-type, EGF stimulated; details: compound 1 hour, then 100 ng/ml EGF 2 minutes
T2 construct: expressed in transfected cells; host or cells: 293H cells
Outline: as §3

[8] = tested on: phospho-Akt in Panc10.05 (G12D); experiment: In-Cell Western phospho-Akt, Panc10.05; details: Homo sapiens, Panc1005, 1 h; Panc10.05, one hour treatment; read-out: In-Cell Western Panc10.05 (G12D) Akt (P)
Outline: as §2

[9] = tested on: phospho-ERK in Panc10.05 (G12D); experiment: In-Cell Western phospho-ERK, Panc10.05; details: Homo sapiens, Panc1005, 1 h; Panc10.05, one hour treatment; read-out: In-Cell Western Panc10.05 (G12D) Erk (P)
Outline: as §2

T1 sequence (P01116 whole entry G12D): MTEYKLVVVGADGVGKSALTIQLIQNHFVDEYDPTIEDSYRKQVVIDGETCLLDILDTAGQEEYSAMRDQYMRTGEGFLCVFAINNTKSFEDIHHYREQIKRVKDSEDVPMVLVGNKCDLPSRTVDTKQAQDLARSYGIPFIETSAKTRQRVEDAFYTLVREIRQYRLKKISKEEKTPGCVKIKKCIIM
T2 sequence (P01116 whole entry): as the sequence (P01116 whole entry G12D) above, with D12G counted along it

Row | Structure (SMILES) | IC50 (Panc10.05-G12D) | EC50 [1] | IC50 (K-Ras G12D) | EC50 [2] | IC50 (HCT116-G31D) | IC50 (Panc1-G12D) | IC50 [3] | EC50 [4] | IC50 [5] | EC50 [6] | IC50 [7] | IC50 (wild type K-Ras) | EC50 [8] | EC50 [9]
1 | CCn1ncc(C(=O)Nc2nc(-c3ccc4c(c3)CCC(=O)N4)cs2)c1C1CC1 [Compound 33, 5-cyclopropyl-1-ethyl-N-(4-(2-oxo-1,2,3,4-tetrahydroquinolin-6-yl)thiazol-2-yl)-1H-pyrazole-4-carboxamide] | > 25 µM | > 25 µM | > 25 µM | > 25 µM | > 25 µM | > 25 µM | > 25 µM | > 25 µM | > 25 µM | > 25 µM | > 25 µM |  |  | 
2 | CCn1cc(C(=O)Nc2nc(-c3ccc4c(c3)CCC(=O)N4)cs2)cn1 [Compound 34, 1-ethyl-N-(4-(2-oxo-1,2,3,4-tetrahydroquinolin-6-yl)thiazol-2-yl)-1H-pyrazole-4-carboxamide] | 7 µM | 15 µM | 15.8 µM | > 25 µM | > 25 µM | > 25 µM | 9 µM | > 25 µM | > 25 µM | > 25 µM | > 25 µM |  |  | 
3 | Cn1ncc(C(=O)Nc2nc(-c3ccc4c(c3)CCC(=O)N4)cs2)c1C1CC1 [Compound 35, 5-cyclopropyl-1-methyl-N-(4-(2-oxo-1,2,3,4-tetrahydroquinolin-6-yl)thiazol-2-yl)-1H-pyrazole-4-carboxamide] | > 25 µM | > 25 µM | > 25 µM | > 25 µM | > 25 µM | > 25 µM | 19 µM | > 25 µM | 7 µM | 11 µM | 6 µM |  |  | 
4 | Cc1nn(C(C)C)cc1C(=O)Nc1nc(-c2ccc3c(c2)CCC(=O)N3)cs1 [Compound 36, 1-isopropyl-3-methyl-N-(4-(2-oxo-1,2,3,4-tetrahydroquinolin-6-yl)thiazol-2-yl)-1N-pyrazole-4-carboxamide] | 3 µM | 2 µM | 7 µM | 15 µM | > 25 µM | 14 µM | 7 µM | > 25 µM | > 25 µM | 20 µM | > 25 µM | 18.3 µM |  | 
5 | CCc1nn(C)cc1C(=O)Nc1nc(-c2ccc3c(c2)CCC(=O)N3)cs1 [Compound 37, 3-ethyl-1-methyl-N-(4-(2-oxo-1,2,3,4-tetrahydroquinolin-6-yl)thiazol-2-yl)-1H-pyrazole-4-carboxamide] | > 25 µM | > 25 µM | > 25 µM | 26 µM | > 25 µM | > 25 µM | > 25 µM | > 25 µM | 7 µM | > 25 µM | 6 µM |  |  | 
6 | Cc1nn(C)c(C)c1C(=O)Nc1nc(-c2ccc3c(c2)CCC(=O)N3)cs1 [Compound 40, 1,3,5-trimethyl-N-(4-(2-oxo-1,2,3,4-tetrahydroquinolin-6-yl)thiazol-2-yl)-1H-pyrazole-4-carboxamide] | > 25 µM | 8 µM | 6.1 µM | 7 µM | > 25 µM | 24 µM | > 25 µM | 25 µM | 7 µM | > 25 µM | 9 µM | 23.3 µM |  | 
7 | CCn1nc(C)c(C(=O)Nc2nc(-c3ccc4c(c3)CCC(=O)N4)cs2)c1C [Compound 41, 1-ethyl-3,5-dimethyl-N-(4-(2-oxo-1,2,3,4-tetrahydroquinolin-6-yl)thiazol-2-yl)-1H-pyrazole-4-carboxamide] | 19 µM | 2 µM | 4.3 µM | 3 µM | > 25 µM | 12 µM | 18 µM | > 25 µM | 6 µM | 22 µM | 7 µM | 7.5 µM |  | 
8 | Cc1nc(C)c(C(=O)Nc2nc(-c3ccc4c(c3)CCC(=O)N4CC3CCOC3)cs2)o1 (stereo not drawn) [Compound 67, 2,4-dimethyl-N-(4-(2-oxo-1-((tetrahydrofuran-3-yl)methyl)-1,2,3,4-tetrahydroquinolin-6-yl)thiazol-2-yl)oxazole-5-carboxamide] | 2 µM | 3 µM | 8 µM |  | 2 µM | 4 µM | 2 µM | 10 µM | 3 µM | 4 µM |  | > 25 µM | 23 µM | 6 µM
9 | Cc1nc(C)c(C(=O)Nc2nc(-c3ccc4c(c3)CCC(=O)N4CC3CC3)cs2)o1 [Compound 68, N-(4-(1-(cyclopropylmethyl)-2-oxo-1,2,3,4-tetrahydroquinolin-6-yl)thiazol-2-yl)-2,4-dimethyloxazole-5-carboxamide] | 3 µM | 5 µM | 10.3 µM | 4 µM | 5 µM | 8 µM | 3 µM | 13 µM | 5 µM | 6 µM |  | 16.7 µM | 23 µM | 7 µM
10 | Cc1nc(C)c(C(=O)Nc2nc(-c3ccc4c(c3)CCC(=O)N4Cc3cccnc3)cs2)o1 [Compound 70, 2,4-dimethyl-N-(4-(2-oxo-1-(pyridin-3-ylmethyl)-1,2,3,4-tetrahydroquinolin-6-yl)thiazol-2-yl)oxazole-5-carboxamide] | 7 µM | 10 µM | 8.3 µM | 22 µM | > 25 µM | 20 µM | 24 µM | 19 µM | > 25 µM | 22 µM |  | > 25 µM | > 25 µM | 25 µM
11 | Cc1nc(C2CCOC2O)sc1C(=O)Nc1nc(-c2ccc3c(c2)CCC(=O)N3Cc2cccnc2)cs1 (stereo not drawn) [Compound 71, 2-(2-hydroxytetrahydrofuran-3-yl)-4-methyl-N-(4-(2-oxo-1-(pyridin-3-ylmethyl)-1,2,3,4-tetrahydroquinolin-6-yl)thiazol-2-yl)thiazole-5-carboxamide] | 6 µM | 25 µM |  | 18 µM | 9 µM | 22 µM | 6 µM | 27 µM | 7 µM | 16 µM |  |  | > 25 µM | 16 µM
